Results published in patent US8940766B2, “Methods for preventing and/or treating lysosomal storage disorders” (Amicus Therapeutics, Inc., priority 2009, dated 2015).

Tests used:
[1] = Blood brain barrier penetration after oral administration to mice; format: in vivo, mice (C57BL/6); details: single 30 mg/kg (free base equivalent) p.o. dose, FIG. 2
Protocol: For this purpose, 8-week old wild-type male mice (C57BL/6) were administered a single 30 mg/kg (free base equivalent) p.o. dose of reference or test compound by gavage (n=3 mice per time point). Dosing solutions were prepared in water. After dosing, mice were euthanized with CO2 at the following time points: 0-, 0.5-, 1-, and 4-hour post-dose. […] Similarly, brains were collected from each mouse. Plasma was derived by spinning whole blood at 2700 g for 10 minutes at 4° C. followed by storage on dry ice. Whole brains were washed in cold PBS to remove contaminating blood, blotted dry, flash frozen on dry ice, and ultimately stored at −80° C. until analysis. To prepare brain samples for analysis, 50-100 mg of tissue was homogenized in […]. Samples were then clarified by centrifugation. Next, 25 μl of the brain homogenate supernatant or 25 μl of plasma were combined with 25 μl of acetonitrile:water (95/5). […] Between 20 and 30 μl sample was injected for analysis. […] When Compound B was analyzed, Compound A was used as internal standard (150.1/130.1). For calculating drug concentrations, raw data for plasma (ng/mL) and brain (ng/g) was converted to nM using the molecular weight of respective compounds and assuming 1 g of tissue is equivalent to 1 mL volume. Concentration as a function of time was plotted in GraphPad Prism version 4.02.

GCase = biological target: T1, GCase (Homo sapiens, UniProt P04062); experiment: Concentration-dependent increase in GCase activity (EC50, Emax); format: cell-based; details: result in words
T1 sequence (P04062 40-536): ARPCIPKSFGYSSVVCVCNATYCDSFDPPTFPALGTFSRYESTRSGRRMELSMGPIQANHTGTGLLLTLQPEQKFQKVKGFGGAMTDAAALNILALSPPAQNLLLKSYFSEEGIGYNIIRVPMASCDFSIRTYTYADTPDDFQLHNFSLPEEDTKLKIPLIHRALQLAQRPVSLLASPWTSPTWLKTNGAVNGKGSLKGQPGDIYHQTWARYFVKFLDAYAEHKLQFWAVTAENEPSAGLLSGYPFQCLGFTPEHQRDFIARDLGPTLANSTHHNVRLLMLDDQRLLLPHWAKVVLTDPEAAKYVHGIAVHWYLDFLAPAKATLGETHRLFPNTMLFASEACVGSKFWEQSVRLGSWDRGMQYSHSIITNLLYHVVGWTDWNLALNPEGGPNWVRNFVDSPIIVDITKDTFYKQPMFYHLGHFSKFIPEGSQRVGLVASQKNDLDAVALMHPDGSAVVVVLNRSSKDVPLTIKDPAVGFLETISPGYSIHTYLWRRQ

[2] = Compound concentration in brain, spleen and plasma samples of GCase enhancement study; format: in vivo, mice (C57BL/6); details: nine doses
Protocol: The ability of orally administered test compounds (the hydrochloride salt form of Compound A and Compound B) to elevate GCase levels as compared to reference compound, IFG-tartrate, was assessed in mice. […] Seven animals were used per dose. The dosing solutions were prepared in water. Compounds were administered over 2 weeks as follows: week 1, Mon-Fri (On), Sat-Sun (Off); week 2, Mon-Thu (On); necropsy on Friday. Thus, a total of 9 doses (dosing solutions prepared fresh every day) were given to each mouse, with a 24-hour washout between the last dose and necropsy.
Plasma was collected by spinning blood at 2700 g for 10 minutes at 4° C. Liver, spleen, lung, and brain tissues were removed, washed in cold PBS, blotted dry, flash frozen on dry ice, and stored at −80° C. until analysis. GCase levels were measured by homogenizing approximately 50 mg tissue in 500 μL McIlvane (MI) buffer (100 mM sodium citrate, 200 mM sodium phosphate dibasic, 0.25% sodium taurocholate, and 0.1% Triton X-100, pH 5.2) at pH 5.2 for 3-5 seconds on ice with a micro homogenizer. Homogenates were then incubated at room temperature without and with 2.5 mM conduritol-B-epoxide (CBE) for 30 min. Finally, 3.7 mM 4-methylumbeliferryl-β-glucoside (4-MUG) substrate was added and incubated at 37° C. for 60 min. Reactions were stopped by addition of 0.4 M glycine, pH 10.6. Fluorescence was measured on a plate reader for 1 sec/well using 355 nm excitation and 460 nm emission. Total protein was determined in lysates using the MicroBCA kit according to the manufacturer's instructions. A 4-methylumbelliferone (4-MU) standard curve ranging from 1.0 nM to 50 μM was run in parallel for conversion of raw fluorescence data to absolute GCase activity (in the presence and absence of CBE) and expressed as nanomoles of 4-MU released per milligram of protein per hour (nmol/mg protein/hr). GCase levels and protein levels were calculated using Microsoft Excel (Redmond, Wash.) and GraphPad Prism version 4.02.

O[C@@H]1[C@@H](CCl)CNC[C@H]1O [Compound B, (3R,4R,5S)-5-(chloromethyl)piperidine-3,4-diol]
brain levels compared to Compound A [1]: even higher levels of Compound B were detected in brain than that observed following administration of the hydrochloride salt form of Compound A
effect on GCase activity (GCase): concentration-dependent increase in GCase activity
enhancement of enzyme activity compared to IFG-tartrate (GCase): enhanced enzyme activity to the same maximum level at much lower concentration
Concentration in GCase assays after dilution (value in parenthesis) ([2]; brain sample, 10 mg/kg p.o.): 0.9 nM
Concentration in GCase assays after dilution (value in parenthesis) ([2]; brain sample, 100 mg/kg p.o.): 7.6 nM
Concentration in GCase assays after dilution (value in parenthesis) ([2]; spleen sample, 10 mg/kg p.o.): 2.4 nM
Concentration in GCase assays after dilution (value in parenthesis) ([2]; spleen sample, 100 mg/kg p.o.): 8 nM
